Experimental data reported in patent US20040023807A1, “3-Arylisothiazoles and their use as herbicides” (priority 2000, published 2004).

What was measured:
[1] = system: catchweed bedstraw (GALAP); assay: greenhouse herbicidal action, post-emergence treatment; type: in vivo; conditions: application rates of 15.6 and 31.3 g of a.s./ha
Source text: (§1) The seeds of the test plants were sewn separately for each species. For the post-emergence treatment, the test plants were first grown to a height of from 3 to 15 cm, depending on the plant habit, and only then treated with the active compounds which had been suspended or emulsified in water. The test plants were for this purpose either sown directly and grown in the same containers, or they were first grown separately as seedlings and transplanted into the test containers a few days prior to treatment. The application rate for the post-emergence treatment was 31.3 and 15.6 g of a.s./ha. Depending on the species, the plants were kept at 10-25° C. or 20-35° C. The test period extended over 2 to 4 weeks. During this time, the plants were tended, and their response to the individual treatments was evaluated. The evaluation was carried out using a scale from 0 to 100. 100 means no emergence of the plants, or complete destruction of at least the above-ground parts, and 0 means no damage, or normal course of growth. The plants used in the greenhouse experiments were of the following species: [table]

dayflower (COMBE) = assay: as above; type: in vivo; conditions: application rates of 15.6 and 31.3 g of a.s./ha
Source text: as §1

morning glory (IPOSS) = assay: as above; type: in vivo; conditions: application rates of 15.6 and 31.3 g of a.s./ha
Source text: as §1

redroot pigweed (AMARE) = assay: as above; type: in vivo; conditions: application rates of 15.6 and 31.3 g of a.s./ha
Source text: as §1

velvet leaf (ABUTH) = assay: as above; type: in vivo; conditions: application rates of 15.6 and 31.3 g of a.s./ha
Source text: as §1

SMILES	herbicidal action [1]	herbicidal action (dayflower (COMBE))	herbicidal action (morning glory (IPOSS))	herbicidal action (redroot pigweed (AMARE))	herbicidal action (velvet leaf (ABUTH))	melting point
COC(=O)C(C)Oc1cc(-c2nsc(C(F)(F)F)c2Cl)c(F)cc1Cl (stereo not shown) [IAa.727, Methyl 2-[2-chloro-4-fluoro-5-(4-chloro-5-trifluoromethylisothiazol-3-yl)phenoxy]propionate]	very good herbicidal action	very good herbicidal action	very good herbicidal action	very good herbicidal action	very good herbicidal action	–
CS(=O)(=O)Nc1cc(-c2nsc(C(F)(F)F)c2Cl)c(Cl)cc1Cl [IAa.361, N-{2,4-Dichloro-5-[4-chloro-5-(trifluoromethyl)-3-isothiazolyl]-phenyl}methanesulfonamide]	–	–	–	–	–	161 to 164 °C
FC(F)(F)c1snc(-c2c(Cl)cc(Cl)c3nc(C4CC4)oc23)c1Cl [IDa.67, 4,6-Dichloro-7-(4-chloro-5-trifluoromethyl-3-isothiazolyl)-2-cyclopropyl-1,3-benzoxazole]	–	–	–	–	–	110 to 111 °C
